For the first experiment, the system named is velvetleaf. Put plainly: Test Example 5: herbicidal effect by foliage application, plastic box (Table 20, symbol M). The class given is in vivo, velvetleaf (Abutilon theophrasti). To be noted: foliage application, 320 g/ha, 3 weeks after application. Summed up:
(§1)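 Sow seeds spot-wise in sterilized diluvial soil; cover with ~1.5 cm soil. Grow 14 days in greenhouse, 25° C. to 30° C. Spray foliage with emulsion diluted to predetermined amount. Rate effect after 3 weeks.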
With `CCCCOc1ccc(-c2sc3ccc(F)cc3c2-c2c(O)c(C)nn(C)c2=O)cc1` [2-036], the “effect on velvetleaf (M)” value is reported as 5 (Herbicidal rate of 90% or more (almost completely withered)).

As for `CCCC(=O)Oc1c(C)nn(C)c(=O)c1-c1c(-c2ccc(OC(F)(F)F)cc2)sc2ccc(F)cc12` [2-046], the “effect on velvetleaf (M)” value is 5 (Herbicidal rate of 90% or more (almost completely withered)).

Another experiment has as its system blackgrass. Put plainly: Test Example 5: herbicidal effect by foliage application, plastic box (Table 20, symbol J). The class given is in vivo, blackgrass (Alopecurus myosuroides). The note with it: foliage application, 320 g/ha, 3 weeks after application. Summed up:
as §1
For the molecule `CCCCOc1ccc(-c2sc3ccc(F)cc3c2-c2c(O)c(C)nn(C)c2=O)cc1` [2-036], the “effect on blackgrass (J)” value is 4 (Herbicidal rate of 70% or more and less than 90%).

`CCCC(=O)Oc1c(C)nn(C)c(=O)c1-c1c(-c2ccc(OC(F)(F)F)cc2)sc2ccc(F)cc12` [2-046]: the “effect on blackgrass (J)” value was 0 (Herbicidal rate of 5% or less (almost no effect)).

In another experiment the test system is chickweed. Put plainly: Test Example 4: herbicidal effect by soil treatment (Table 19, symbol P). Format: in vivo, common chickweed (Stellaria media). To be noted: 320 g/ha. Summed up:
(§2)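 Soil-surface application: an emulsion agent diluted with water to the predetermined dose is sprayed uniformly over seeds lying under roughly 1.5 cm of sterilized diluvial soil. Boxes stay in a greenhouse at 25° C. to 30° C. Three weeks later, each species is graded on previously defined criteria.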
Take `CCCCOc1ccc(-c2sc3ccc(F)cc3c2-c2c(O)c(C)nn(C)c2=O)cc1` [2-036]: the “herbicidal effect rating, P: chickweed” value is 3 (Herbicidal rate of 40% or more and less than 70%).

`CCCC(=O)Oc1c(C)nn(C)c(=O)c1-c1c(-c2ccc(OC(F)(F)F)cc2)sc2ccc(F)cc12` [2-046]: the “herbicidal effect rating, P: chickweed” value was 5 (Herbicidal rate of 90% or more (almost completely withered)).

The test system of another experiment is barnyard grass. Put plainly: Test Example 5: herbicidal effect by foliage application, plastic box (Table 20, symbol H). The class given is in vivo, barnyard grass (Echinochloa crus-galli). The note with it: foliage application, 320 g/ha, 3 weeks after application. Put shortly: as §1
With `CCCCOc1ccc(-c2sc3ccc(F)cc3c2-c2c(O)c(C)nn(C)c2=O)cc1` [2-036], the “effect on barnyard grass (H)” value is 5 (Herbicidal rate of 90% or more (almost completely withered)).

Take `CCCC(=O)Oc1c(C)nn(C)c(=O)c1-c1c(-c2ccc(OC(F)(F)F)cc2)sc2ccc(F)cc12` [2-046]: the “effect on barnyard grass (H)” value was 5 (Herbicidal rate of 90% or more (almost completely withered)).

The subject of a further experiment is Italian ryegrass. The experiment is described as follows: Test Example 4: herbicidal effect by soil treatment (Table 19, symbol K). The note with it: 320 g/ha. Format: in vivo, Italian ryegrass (Lolium multiflorum). Summed up:
as §2
Turning to `CCCCOc1ccc(-c2sc3ccc(F)cc3c2-c2c(O)c(C)nn(C)c2=O)cc1` [2-036], the “herbicidal effect rating, K: Italian ryegrass” value was 0 (Herbicidal rate of 5% or less (almost no effect)).

As to `CCCC(=O)Oc1c(C)nn(C)c(=O)c1-c1c(-c2ccc(OC(F)(F)F)cc2)sc2ccc(F)cc12` [2-046], the “herbicidal effect rating, K: Italian ryegrass” value is 3 (Herbicidal rate of 40% or more and less than 70%).

The subject of another experiment is persian speedwell. The experiment is described as follows: Test Example 4: herbicidal effect by soil treatment (Table 19, symbol R). To be noted: 320 g/ha. The class given is in vivo, Persian speedwell (Veronica persica). Summed up:
as §2
For the molecule `CCCCOc1ccc(-c2sc3ccc(F)cc3c2-c2c(O)c(C)nn(C)c2=O)cc1` [2-036], the “herbicidal effect rating, R: persian speedwell” value was 4 (Herbicidal rate of 70% or more and less than 90%).

Turning to `CCCC(=O)Oc1c(C)nn(C)c(=O)c1-c1c(-c2ccc(OC(F)(F)F)cc2)sc2ccc(F)cc12` [2-046], the “herbicidal effect rating, R: persian speedwell” value is 5 (Herbicidal rate of 90% or more (almost completely withered)).

Another experiment deals with lambsquarters. The experiment is described as follows: Test Example 4: herbicidal effect by soil treatment (Table 19, symbol O). The class given is in vivo, lambsquarters (Chenopodium album). To be noted: 320 g/ha. Put shortly:
as §2
In the case of `CCCCOc1ccc(-c2sc3ccc(F)cc3c2-c2c(O)c(C)nn(C)c2=O)cc1` [2-036], the “herbicidal effect rating, O: lambsquarters” value was 5 (Herbicidal rate of 90% or more (almost completely withered)).

On to `CCCC(=O)Oc1c(C)nn(C)c(=O)c1-c1c(-c2ccc(OC(F)(F)F)cc2)sc2ccc(F)cc12` [2-046], for which the “herbicidal effect rating, O: lambsquarters” value is 5 (Herbicidal rate of 90% or more (almost completely withered)).

In another experiment the test system is barnyard grass. Put plainly: Test Example 3: herbicidal effect by foliage application, Wagner pot (Table 18, symbol H). The class given is in vivo, barnyard grass (Echinochloa crus-galli). To be noted: 320 g/ha. Put shortly:
(§3)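 Plants were sown in alluvial soil held under 0.1–0.5 cm standing water and grown 14 days in a greenhouse at 25–30 °C. An emulsifiable formulation, water-diluted to the set dose, was then sprayed onto the foliage, and effects were scored three weeks later using previously defined criteria.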
As to `CCCCOc1ccc(-c2sc3ccc(F)cc3c2-c2c(O)c(C)nn(C)c2=O)cc1` [2-036], the “herbicidal effect on H (barnyard grass), rating 0-5” value is 5 (Herbicidal rate of 90% or more (almost completely withered)).

With `CCCC(=O)Oc1c(C)nn(C)c(=O)c1-c1c(-c2ccc(OC(F)(F)F)cc2)sc2ccc(F)cc12` [2-046], the “herbicidal effect on H (barnyard grass), rating 0-5” value was 5 (Herbicidal rate of 90% or more (almost completely withered)).

The test system of a further experiment is windgrass. Put plainly: Test Example 4: herbicidal effect by soil treatment (Table 19, symbol L). Format: in vivo, windgrass (Apera spica-venti). The note with it: 320 g/ha. Put shortly:
as §2
For the molecule `CCCCOc1ccc(-c2sc3ccc(F)cc3c2-c2c(O)c(C)nn(C)c2=O)cc1` [2-036], the “herbicidal effect rating, L: windgrass” value is given as 0 (Herbicidal rate of 5% or less (almost no effect)).

As for `CCCC(=O)Oc1c(C)nn(C)c(=O)c1-c1c(-c2ccc(OC(F)(F)F)cc2)sc2ccc(F)cc12` [2-046], the “herbicidal effect rating, L: windgrass” value is recorded as 0 (Herbicidal rate of 5% or less (almost no effect)).

The subject of another experiment is southern crabgrass. Put plainly: Test Example 5: herbicidal effect by foliage application, plastic box (Table 20, symbol F). The class given is in vivo, southern crabgrass (Digitaria ciliaris). The note with it: foliage application, 320 g/ha, 3 weeks after application. Put shortly: as §1
Consider `CCCCOc1ccc(-c2sc3ccc(F)cc3c2-c2c(O)c(C)nn(C)c2=O)cc1` [2-036], for which the “effect on southern crabgrass (F)” value was 4 (Herbicidal rate of 70% or more and less than 90%).

As for `CCCC(=O)Oc1c(C)nn(C)c(=O)c1-c1c(-c2ccc(OC(F)(F)F)cc2)sc2ccc(F)cc12` [2-046], the “effect on southern crabgrass (F)” value is listed as 0 (Herbicidal rate of 5% or less (almost no effect)).

The test system of another experiment is Japanese bulrush. Put plainly: Test Example 1: herbicidal activity, application before weed generation under submerged conditions (Table 16, symbol B). The class given is in vivo, Japanese bulrush (Schoenoplectus juncoides). The note with it: 320 g/ha applied herbicide. Summed up:
(§4)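 Emulsion formulation, water-diluted to set dose, was put onto the flooded surface (4 cm depth, alluvial soil) the same day weeds were sown and 2.5-leaf rice transplanted. After 3 weeks at 25-30 °C under glass, each species was rated 0 (≤5% kill) to 5 (≥90% kill).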
Take `CCCCOc1ccc(-c2sc3ccc(F)cc3c2-c2c(O)c(C)nn(C)c2=O)cc1` [2-036]: the “Herbicidal effect on B: Japanese bulrush (grade 0-5)” value was 4 (Herbicidal rate of 70% or more and less than 90%).

For the molecule `CCCC(=O)Oc1c(C)nn(C)c(=O)c1-c1c(-c2ccc(OC(F)(F)F)cc2)sc2ccc(F)cc12` [2-046], the “Herbicidal effect on B: Japanese bulrush (grade 0-5)” value is 4 (Herbicidal rate of 70% or more and less than 90%).

The test system of another experiment is windgrass. The experiment is described as follows: Test Example 5: herbicidal effect by foliage application, plastic box (Table 20, symbol L). Format: in vivo, windgrass (Apera spica-venti). The note with it: foliage application, 320 g/ha, 3 weeks after application. Put shortly: as §1
As for `CCCCOc1ccc(-c2sc3ccc(F)cc3c2-c2c(O)c(C)nn(C)c2=O)cc1` [2-036], the “effect on windgrass (L)” value is 4 (Herbicidal rate of 70% or more and less than 90%).

Regarding `CCCC(=O)Oc1c(C)nn(C)c(=O)c1-c1c(-c2ccc(OC(F)(F)F)cc2)sc2ccc(F)cc12` [2-046], the “effect on windgrass (L)” value was 0 (Herbicidal rate of 5% or less (almost no effect)).

The next experiment has as its system late watergrass. The experiment is described as follows: Test Example 1: herbicidal activity, application before weed generation under submerged conditions (Table 16, symbol A). Format: in vivo, late watergrass (Echinochloa oryzicola). To be noted: 320 g/ha applied herbicide. Summed up: as §4
As for `CCCCOc1ccc(-c2sc3ccc(F)cc3c2-c2c(O)c(C)nn(C)c2=O)cc1` [2-036], the “Herbicidal effect on A: late watergrass (grade 0-5)” value was 3 (Herbicidal rate of 40% or more and less than 70%).

With `CCCC(=O)Oc1c(C)nn(C)c(=O)c1-c1c(-c2ccc(OC(F)(F)F)cc2)sc2ccc(F)cc12` [2-046], the “Herbicidal effect on A: late watergrass (grade 0-5)” value is 4 (Herbicidal rate of 70% or more and less than 90%).

The subject of a further experiment is wild oat. The experiment is described as follows: Test Example 5: herbicidal effect by foliage application, plastic box (Table 20, symbol I). The class given is in vivo, wild oat (Avena fatua). To be noted: foliage application, 320 g/ha, 3 weeks after application. Put shortly: as §1
In the case of `CCCCOc1ccc(-c2sc3ccc(F)cc3c2-c2c(O)c(C)nn(C)c2=O)cc1` [2-036], the “effect on wild oat (I)” value was 4 (Herbicidal rate of 70% or more and less than 90%).

For `CCCC(=O)Oc1c(C)nn(C)c(=O)c1-c1c(-c2ccc(OC(F)(F)F)cc2)sc2ccc(F)cc12` [2-046], the “effect on wild oat (I)” value was 0 (Herbicidal rate of 5% or less (almost no effect)).

A further experiment has as its system Chinese sprangletop. Put plainly: Test Example 3: herbicidal effect by foliage application, Wagner pot (Table 18, symbol D). Format: in vivo, chinese sprangletop (Leptochloa chinensis). To be noted: 320 g/ha. Put shortly:
as §3
Turning to `CCCCOc1ccc(-c2sc3ccc(F)cc3c2-c2c(O)c(C)nn(C)c2=O)cc1` [2-036], the “herbicidal effect on D (Chinese sprangletop), rating 0-5” value was 3 (Herbicidal rate of 40% or more and less than 70%).

Regarding `CCCC(=O)Oc1c(C)nn(C)c(=O)c1-c1c(-c2ccc(OC(F)(F)F)cc2)sc2ccc(F)cc12` [2-046], the “herbicidal effect on D (Chinese sprangletop), rating 0-5” value was 3 (Herbicidal rate of 40% or more and less than 70%).

The next experiment has as its system oval-leafed pondweed. The experiment is described as follows: Test Example 1: herbicidal activity, application before weed generation under submerged conditions (Table 16, symbol C). The class given is in vivo, oval-leafed pondweed (Monochoria vaginalis). The note with it: 320 g/ha applied herbicide. Put shortly:
as §4
In the case of `CCCCOc1ccc(-c2sc3ccc(F)cc3c2-c2c(O)c(C)nn(C)c2=O)cc1` [2-036], the “Herbicidal effect on C: oval-leafed pondweed (grade 0-5)” value was 4 (Herbicidal rate of 70% or more and less than 90%).

As to `CCCC(=O)Oc1c(C)nn(C)c(=O)c1-c1c(-c2ccc(OC(F)(F)F)cc2)sc2ccc(F)cc12` [2-046], the “Herbicidal effect on C: oval-leafed pondweed (grade 0-5)” value was 3 (Herbicidal rate of 40% or more and less than 70%).

For a further experiment, the system named is rice flat sedge. Put plainly: Test Example 3: herbicidal effect by foliage application, Wagner pot (Table 18, symbol E). Format: in vivo, rice flat sedge (Cyperus iria). To be noted: 320 g/ha. Summed up: as §3
As for `CCCCOc1ccc(-c2sc3ccc(F)cc3c2-c2c(O)c(C)nn(C)c2=O)cc1` [2-036], the “herbicidal effect on E (rice flat sedge), rating 0-5” value is reported as 5 (Herbicidal rate of 90% or more (almost completely withered)).

For `CCCC(=O)Oc1c(C)nn(C)c(=O)c1-c1c(-c2ccc(OC(F)(F)F)cc2)sc2ccc(F)cc12` [2-046], the “herbicidal effect on E (rice flat sedge), rating 0-5” value is recorded as 5 (Herbicidal rate of 90% or more (almost completely withered)).

Source of the values: US20230085307A1, “PYRIDAZINONE COMPOUND AND HERBICIDE” (NISSAN CHEMICAL CORPORATION, priority 2019, published 2023).
